The structures appear in SMILES notation. “Also recorded” adds a separate entry of the source.

The values below come from patent US11236120B2, “Azithromycin derivatives with epithelial barrier enhancement properties” (EpiEndo Pharmaceuticals ehf, priority 2015, dated 2022).

The experiment relates to barrier integrity in the lungs of mice under sulphur dioxide insult. In words: Barrier integrity enhancement in the lung: HSA leakage into BAL after sulphur dioxide insult. It is filed as in vivo. The procedure: The effect of compounds of the invention on maintenance of barrier integrity in the lungs of mice under sulphur dioxide insult was investigated.
1. 15 female mice were randomised into 3 groups of 5 mice. The three groups were: • a) Control group • b) Azithromycin treatment group • c) Investigational compound treatment group
2. The mice were pre-treated for three days with: • a) Placebo (Phosphate buffered saline—PBS) given at a dose of 10 mg/kg in an intravenous injection of 100 μl three times per week. • b) Azithromycin: given at a dose of 10 mg/kg in an intravenous injection of 100 μl three times per week. • c) The compound of Example 2: given at a dose of 10 mg/kg in an intravenous injection of 100 μl three times per week.
3. One mouse in each group was set to one side as a control. Four mice were then exposed to sulphur dioxide gas at a concentration of 200 ppm in air for a period of 60 minutes. The mice were in a cage that was inserted into a 45 L treatment box with a removable lid, a gas feed line and a gas exhaust vent. […] The gas was premixed from bottled air and bottled 200 ppm SO2 in a first box and then fed into the treatment box. The level of SO2 being fed into the treatment box can be varied by adjusting the relative flow of air and SO2 from the two source cylinders. As the sulphur dioxide concentration in this experiment was 200 ppm, it was used neat, with no additional air being mixed with it. The mice had access to food and water for the duration of the treatment.
4. 24 hours after the end of the treatment, 1 mg of human serum albumin (HSA) in 100 μl saline was injected into the tail vein of each mouse, and fluorescent dextrans (FDs) were injected into the airways. The mice were then kept sedated for 90 minutes.
5. After 90 minutes, the mice were sacrificed via exsanguination. Plasma and bronchoalveolar lavage (BAL) were collected and the lungs were processed for paraffin embedding.
6. The level of HSA in the BAL was quantified by ELISA. The ELISA test used was the one commercially available from abcam (Human Serum Albumin kit ab179887). In line with the kit manufacturer's instructions, absorbance at […] was measured. Fluorescent dextrans are quantified using a fluorescent plate reader.
The level of HSA that leaks into the lungs, as found in the BAL, is a measure of the integrity of the lung epithelial barrier.
In the placebo group, there were experimental difficulties with two of the four mice; in the Azithromycin group, there were experimental difficulties with one of the four mice; and in the investigational compound group, there were experimental difficulties with two of the four mice. Therefore, results were obtained from two mice in each of the placebo and investigational compound groups, and from three mice in the Azithromycin group.

In the case of `CC[C@H]1OC(=O)[C@H](C)[C@@H](O[C@H]2C[C@@](C)(OC)[C@@H](O)[C@H](C)O2)[C@H](C)[C@@H](O[C@@H]2O[C@H](C)C[C@H](N(C)C)[C@H]2O)[C@](C)(O)C[C@@H](C)CN(C)[C@H](C)[C@@H](O)[C@]1(C)O` [Azithromycin, (2R,3S,4R,5R,8R,10R,11R,12S,13S,14R)-11-[(2S,3R,4S,6R)-4-(dimethylamino)-3-hydroxy-6-methyl-tetrahydropyran-2-yl]oxy-2-ethyl-3,4,10-trihydroxy-13-[(2R,4R,5S,6S)-5-hydroxy-4-methoxy-4,6-dimethyl-tetrahydropyran-2-yl]oxy-3,5,6,8,10,12,14-heptamethyl-1-oxa-6-azacyclopentadecan-15-one], the “HSA level - absorbance at 600 nm” value (HSA in BAL by ELISA, mice, 10 mg/kg intravenous, 200 ppm SO2 for 60 minutes) is on record as 0.346 ± 0.031. The “leakage of HSA into the lung following SO2 insult” value (compared with control, FIG. 1) is “reduced compared with the control; also recorded: reduced compared with a control”. Besides, the “HSA level - absorbance at 600 nm relative to control” value (relative to PBS control, mice, 10 mg/kg intravenous, 200 ppm SO2 for 60 minutes) came out at 0.593 ± 0.053.
